Tests used:
[1] = system: intracellular Ca^2+ stores; assay: Ca2+ release from intracellular stores (FURA-2AM loaded cells); format: cell-based; set-up: key to Ca^2+ (Ca^2+ release from intracellular stores): a “+” denotes release; a “+/−” denotes inconclusive
Source text: (§1) As a non-limiting example, compounds 1272 and 1273 (set forth in Table 1) were synthesized starting from 3-bromoaniline, which upon condensation with hydroxylamine and chloral hydrate followed by concentrated sulfuric acid yielded an inseparable regioisomeric mixture of 4- and 6-bromo isatins. The addition of the two phenyl groups to the three position of the oxindole allowed easy chromatographic separation of the 4- and 6-bromo-3,3-diphenyloxindoles 1272 and 1273. Table 1 sets forth biological data for diaryloxindole compounds including, but not limited to 1272 and 1273. For Tables 1-14, Ca^2+ refers to Ca^2+ release from intracellular stores where a “+” denotes release and a “+/−” denotes inconclusive; eIF2α-P refers to phosphorylation of eIF2α measured by Western blot; SRB refers to the inhibitory concentration to reduce cell growth by 50% (IC50) for growth inhibition of A549 lung cancer cells; and n.d. is not determined.
(§2) Without intending to be bound by theory, the mechanism of action of translation initiation inhibitors is set forth in FIG. 1, and includes the depletion (complete or partial depletion) of intracellular calcium (Ca^2+) stores and phosphorylation of eIF2α. Compounds synthesized using the approaches described herein were screened for their ability to partially deplete intracellular Ca^2+ stores using FURA-2AM loaded cells (Benzaquen et al. (1995) Nature Medicine, 1:534, incorporated herein by reference in its entirety for all purposes). A limited subset of compounds were further screened for their ability to deplete endoplasmic reticulum (ER) Ca^2+. The Ca^2+ content of the ER was monitored using ER-targeted, Ca^2+ sensitive, recombinant proteins. These recombinant proteins emitted light by fluorescent resonance energy transfer (FRET) as a function of the Ca^2+ content of the medium. Such assays are previously described (Miyawaki, A.; Mizuno, H.; Llopis, J.; Tsien, R. Y.; Jalink, K. Cameleons as cytosolic and intra-organellar calcium probes, Oxford University Press: Oxford, London, 2001; pp 3-16, incorporated herein by reference in its entirety for all purposes). Compounds that depleted Ca^2+ were further evaluated for their ability to phosphorylate eIF2α. eIF2α phosphorylation was measured by Western blot analysis using the phospho-specific anti-eIF2α antibody, as previously described (Aktas et al. (1998) Proc. Natl. Acad. Sci. USA, 95:8280, incorporated herein by reference in its entirety for all purposes).

eIF2α = eIF2α phosphorylation measured by Western blot; format: cell-based; details: Western blot; unit or reference not given
Source text: as §1, §2

A549 lung cancer cells = assay: SRB growth inhibition of A549 lung cancer cells; format: cell-based, human; details: A549 lung cancer cells; unit inferred; read-out: SRB (IC50 for growth inhibition of A549 lung cancer cells)
Source text: As a non-limiting example, compounds 1272 and 1273 (set forth in Table 1) were synthesized starting from 3-bromoaniline, which upon condensation with hydroxylamine and chloral hydrate followed by concentrated sulfuric acid yielded an inseparable regioisomeric mixture of 4- and 6-bromo isatins. The addition of the two phenyl groups to the three position of the oxindole allowed easy chromatographic separation of the 4- and 6-bromo-3,3-diphenyloxindoles 1272 and 1273. Table 1 sets forth biological data for diaryloxindole compounds including, but not limited to 1272 and 1273. For Tables 1-14, Ca^2+ refers to Ca^2+ release from intracellular stores where a “+” denotes release and a “+/−” denotes inconclusive; eIF2α-P refers to phosphorylation of eIF2α measured by Western blot; SRB refers to the inhibitory concentration to reduce cell growth by 50% (IC50) for growth inhibition of A549 lung cancer cells; and n.d. is not determined. […]

SMILES | Ca^2+ (Ca^2+ release from intracellular stores) [1] | eIF2α-P (phosphorylation of eIF2α measured by Western blot) (eIF2α) | IC50 (A549 lung cancer cells) [µM]
CCc1cccc2c1C(c1ccccc1)(c1cc(C(C)(C)C)ccc1O)C(=O)N2 (stereo not drawn) [Compound 1257] | + | 1.11 | 10
CC(C)CC(NC(=O)COc1ccc(C(C)(C)C)cc1C1(c2ccccc2)C(=O)Nc2ccccc21)C(=O)NC(CO)Cc1ccccc1 (stereo not drawn) [Compound 1400] | + | 3.70 | 3
CC(C)(C)c1ccc(C2(c3ccccc3)C(=O)Nc3ccccc32)cc1 (stereo not drawn) [Compound 1349] | + | 1.27 | 8
CC(C)(C)c1ccc(O)c(C2(c3ccccc3)C(=O)Nc3c(C(=O)O)cccc32)c1 (stereo not drawn) [Compound 1408] | + | 2.08 | > 20
O=C1Nc2ccccc2C1(c1ccccc1)c1ccc(OCCO)cc1 (stereo not drawn) [Compound 1299] | + | 0.71 | 5
Cc1cc(C2(c3ccccc3)C(=O)Nc3ccccc32)c(NS(=O)(=O)c2ccc([N+](=O)[O-])cc2)cc1O (stereo not drawn) [Compound 1589] | + | 1 | 5
CC(C)Cc1ccc(O)c(C2(c3ccccc3)C(=O)Nc3ccccc32)c1 (stereo not drawn) [Compound 1281] | + | 7.94 | 3
COC(=O)c1ccc(Cl)c2c1NC(=O)C2(c1ccccc1)c1ccccc1 [Compound 1351] | +/− | 1.35 | > 20
CC(C)(C)c1ccc(O)c(C2(c3ccccc3)C(=O)Nc3ccc([N+](=O)[O-])cc32)c1 (stereo not drawn) [Compound 1212] | + | 1.28 | 4
O=C1Nc2ccc(I)cc2C1(c1ccccc1)c1ccccc1 [Compound 1264] | + | 2.53 | 9
CCc1cccc2c1NC(=O)C2(c1ccccc1)c1cc(C(C)(C)C)ccc1O (stereo not drawn) [Compound 1256] | + | 1.3 | 3
COc1cccc(C2(c3ccccc3)C(=O)Nc3ccccc32)c1 (stereo not drawn) [Compound 1293] | +/− | 1.30 | 14
CC(C)(C)c1cccc(C2(c3ccccc3)C(=O)Nc3ccccc32)c1 (stereo not drawn) [Compound 1217] | + | 1.5 | 4
O=C1Nc2ccc(Cl)cc2C1(c1ccccc1)c1ccccc1 [Compound 1206] | + | 1.58 | 9
Cc1cccc(C2(c3cc(C(C)(C)C)ccc3O)C(=O)Nc3ccccc32)c1 (stereo not drawn) [Compound 1224] | + | 1.74 | 9
O=C1Nc2c(Cn3ccnc3)ccc(Cl)c2C1(c1ccccc1)c1ccccc1 [Compound 1401] | +/− | 2.56 | > 20
O=C1Nc2ccccc2C1(c1ccccc1)c1ccccc1 [Compound 1194] | + | 2.5 | 13
